The values below come from patent US12479818B2, “Treatment of fibrosis with IRE1 small molecule inhibitors” (Cornell University, priority 2019, dated 2025).

A value given as a limit tells only on which side of the number the result lay.

The target of this assay is IRE1a (Homo sapiens, UniProt O75460). The experiment in a line: IRE1a Endoribonuclease Nanoluciferase Assay (XBP1 luciferase reporter in 293T cells). Conditions: XBP1 nanoluciferase reporter in 293T cells, ER stressor; tested as the salt named. On the set-up: endogenous in cells; host or cells: 293T. It is filed as cell-based. The procedure:
Compounds disclosed herein were assessed for disruption of IRE1 signaling using a IRE1a Endoribonuclease Nanoluciferase Assay. […] About 24 hours later, the cells were transfected with Effectene. In a 15 mL tube, the following was added: 2 ug XBP1 luciferase reporter plasmid (PGK-Luc2-P2A-XBP1u-Nanoluciferase-PEST); 300 ul EC buffer; and 16 ul Enhancer, followed by incubation at room temp for 5 minutes. […] 2.6 mL cDMEM media was added. Old media was aspirated from the cells, followed by addition of 7 mL fresh media. Full transfection mixture was added dropwise to cells. Cells were incubated for 6 hours, followed by trypsinization, centrifugation and resuspension in 11 mL fresh cDMEM media. 100 μL of cells were plated per a well in a 96 well plate. A day later, ER stressors of choice +/− inhibitors were added. To harvest, media was aspirated from cells completely, then 50 uL 1× passive lysis buffer (Promega: E1941) was added per well and put on shaker (300 rpm) for 30 minutes at room temperature. […] 15 uL OneGlo (nanoluciferase kit, Promega N1630) was added. Plates were spun down, placed on shaker (300 rpm) for 10 minutes. Plates were read on luminometer, 1000 ms integration time per well. 15 uL Stop and Glo (nanoluciferase kit) was added. Plates were spun down, placed on shaker (300 rpm) for 10 minutes. Plates were read on luminometer, 1000 ms second integration time per well.

For orientation: EC50 means the concentration giving half of the maximal effect.

Sequence of IRE1a (O75460 19-977): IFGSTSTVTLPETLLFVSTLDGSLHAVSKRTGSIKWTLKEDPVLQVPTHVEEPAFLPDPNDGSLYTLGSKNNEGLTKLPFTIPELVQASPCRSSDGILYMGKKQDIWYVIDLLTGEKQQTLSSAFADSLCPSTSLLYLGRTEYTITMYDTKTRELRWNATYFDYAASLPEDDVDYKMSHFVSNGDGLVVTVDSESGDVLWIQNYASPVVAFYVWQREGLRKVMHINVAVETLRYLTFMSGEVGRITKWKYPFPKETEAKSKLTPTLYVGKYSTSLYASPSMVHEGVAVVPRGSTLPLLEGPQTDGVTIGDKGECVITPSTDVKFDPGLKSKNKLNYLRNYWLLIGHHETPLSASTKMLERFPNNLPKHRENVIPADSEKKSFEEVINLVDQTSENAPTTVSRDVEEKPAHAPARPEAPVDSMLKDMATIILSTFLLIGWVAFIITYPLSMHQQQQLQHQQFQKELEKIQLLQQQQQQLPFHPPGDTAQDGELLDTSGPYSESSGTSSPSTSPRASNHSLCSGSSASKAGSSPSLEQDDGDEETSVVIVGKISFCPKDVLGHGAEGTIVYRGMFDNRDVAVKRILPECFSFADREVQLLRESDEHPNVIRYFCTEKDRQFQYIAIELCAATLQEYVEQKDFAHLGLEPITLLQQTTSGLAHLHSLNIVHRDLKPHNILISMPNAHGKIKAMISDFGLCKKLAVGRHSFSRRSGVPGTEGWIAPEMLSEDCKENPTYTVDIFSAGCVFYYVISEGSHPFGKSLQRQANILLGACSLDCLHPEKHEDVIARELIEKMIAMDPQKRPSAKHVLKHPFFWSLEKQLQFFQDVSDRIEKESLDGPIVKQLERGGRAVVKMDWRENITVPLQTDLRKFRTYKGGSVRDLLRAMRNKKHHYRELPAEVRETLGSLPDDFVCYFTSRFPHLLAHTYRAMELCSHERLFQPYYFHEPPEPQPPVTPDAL

Regarding `CCCc1cc(-c2cc(NS(=O)(=O)c3ccccc3Cl)nn2C)cc2cnc(N[C@H]3CC[C@H](N)CC3)nc12` [Compound 47, N-(5-(2-(((1r,4r)-4-aminocyclohexyl)amino)-8-propylquinazolin-6-yl)-1-methyl-1H-pyrazol-3-yl)-2-chlorobenzene-sulfonamide], the EC50 was 5 to 50 nM.

As to `N[C@H]1CC[C@H](Nc2ncc3cc(-c4ccc(NS(=O)(=O)c5ccccc5Cl)cc4F)ccc3n2)CC1` [Compound 48, N-(4-(2-(((1r,4r)-4-aminocyclohexyl)amino)quinazolin-6-yl)-3-fluorophenyl)-2-chlorobenzene-sulfonamide], the 50% effective concentration (EC50) lay within 5 to 50 nM.

With `N[C@H]1CC[C@H](Nc2ncc3cc(-c4ncc(NS(=O)(=O)c5ccccc5Cl)cc4F)ccc3n2)CC1` [Compound 51, N-(6-(2-(((1r,4r)-4-aminocyclohexyl)amino)quinazolin-6-yl)-5-fluoropyridin-3-yl)-2-chlorobenzene-sulfonamide], the EC50 is 50 to 100 nM.

In the case of `CCc1cc(-c2ncc(NS(=O)(=O)c3ccccc3Cl)cc2F)cc2cnc(N[C@H]3CC[C@H](N)CC3)nc12` [Compound 52, N-(6-(2-(((1r,4r)-4-aminocyclohexyl)amino)-8-ethylquinazolin-6-yl)-5-fluoropyridin-3-yl)-2-chlorobenzene-sulfonamide], the EC50 was less than 5 nM.

In the case of `N[C@H]1CC[C@H](Nc2ncc3cc(-c4cc(F)c(NS(=O)(=O)c5ccccc5Cl)cc4F)ccc3n2)CC1` [Compound 53, N-(4-(2-(((1r,4r)-4-aminocyclohexyl)amino)quinazolin-6-yl)-2,5-difluorophenyl)-2-chlorobenzene-sulfonamide], the EC50 is less than 5 nM.

`N[C@H]1CC[C@H](Nc2ncc3cc(-c4cnc(NS(=O)(=O)c5ccccc5Cl)c(F)c4)ccc3n2)CC1` [Compound 54, N-(5-(2-(((1r,4r)-4-aminocyclohexyl)amino)quinazolin-6-yl)-3-fluoropyridin-2-yl)-2-chlorobenzene-sulfonamide]: the EC50 lay within 5 to 50 nM.

For the compound `CCc1cc(-c2cnc(NS(=O)(=O)c3ccccc3Cl)c(F)c2)cc2cnc(N[C@H]3CC[C@H](N)CC3)nc12` [Compound 55, N-(5-(2-(((1r,4r)-4-aminocyclohexyl)amino)-8-ethylquinazolin-6-yl)-3-fluoropyridin-2-yl)-2-chlorobenzene-sulfonamide], the EC50 was less than 5 nM.

In the case of `N[C@H]1CC[C@H](Nc2ncc3cc(-c4ccc(NS(=O)(=O)c5ccccc5Cl)c(F)c4F)ccc3n2)CC1` [Compound 56, N-(4-(2-(((1r,4r)-4-aminocyclohexyl)amino)quinazolin-6-yl)-2,3-difluorophenyl)-2-chlorobenzene-sulfonamide], the EC50 was less than 5 nM.

As for `N[C@H]1CC[C@H](Nc2cc3ccc(-c4ccc(NS(=O)(=O)c5ccccc5Cl)c(F)c4)cc3cn2)CC1` [Compound 57, N-(4-(3-(((1r,4r)-4-aminocyclohexyl)amino)isoquinolin-7-yl)-2-fluorophenyl)-2-chlorobenzene-sulfonamide], the EC50 was less than 5 nM.

Take `CCc1cc(-c2ccc(NS(=O)(=O)c3ccccc3Cl)c(F)c2)cc2cnc(N[C@H]3CC[C@H](NC(C)=O)CC3)nc12` [Compound 59, N-((1r,4)-4-((6-(4-((2-chlorophenyl)sulfonamido)-3-fluorophenyl)-8-ethylquinazolin-2-yl)amino)cyclohexyl) acetamide]: the EC50 was in the range of 50 to 100 nM.

`CCc1cc(-c2ccc(NS(=O)(=O)c3ccccc3Cl)c(F)c2)cc2cnc(N[C@H]3CC[C@H](NC)CC3)nc12` [Compound 60, 2-chloro-N-(4-(8-ethyl-2-(((1r,4)-4-(methylamino)cyclohexyl)amino)quinazolin-6-yl)-2-fluorophenyl) benzene-sulfonamide]: the EC50 was less than 5 nM.

`CCc1cc(-c2ccc(NS(=O)(=O)c3ccccc3Cl)nn2)cc2cnc(N[C@H]3CC[C@H](NC)CC3)nc12` [Compound 61, 2-chloro-N-(6-(8-ethyl-2-(((lr,4r)-4-(methylamino)cyclohexyl)amino)quinazolin-6-yl)pyridazin-3-yl)benzene-sulfonamide]: the EC50 is less than 5 nM.

As for `N[C@H]1CC[C@H](Nc2ncc3cc(-c4c(F)cc(NS(=O)(=O)c5ccccc5Cl)cc4F)ccc3n2)CC1` [Compound 62, N-(4-(2-(((1r,4r)-4-aminocyclohexyl)amino)quinazolin-6-yl)-3,5-difluorophenyl)-2-chlorobenzene-sulfonamide], the EC50 is 5 to 50 nM.

Turning to `CCc1cc(-c2ccc(NS(=O)(=O)c3ccccc3Cl)nn2)cc2cnc(N[C@H]3CC[C@H](N(C)C)CC3)nc12` [Compound 64, 2-chloro-N-(6-(2-(((1r,4r)-4-(dimethylamino)cyclohexyl)amino)-8-ethylquinazolin-6-yl)pyridazin-3-yl)benzene-sulfonamide], the EC50 is less than 5 nM.

Consider `CCc1cc(-c2nnc(NS(=O)(=O)c3ccccc3Cl)cc2OC)cc2cnc(N[C@H]3CC[C@H](N)CC3)nc12` [Compound 65, N-(6--(2-(((lr,4r)-4-aminocyclohexyl)amino)-8-ethylquinazolin-6-yl)-5-methoxypyridazin-3-yl)-2-chlorobenzene-sulfonamide], for which the EC50 was 5 to 50 nM.

`CCc1cc(-c2cc(OC)c(NS(=O)(=O)c3ccccc3Cl)nn2)cc2cnc(N[C@H]3CC[C@H](N)CC3)nc12` [Compound 66, N-(6-(2-(((1r,4r)-4-aminocyclohexyl)amino)-8-ethylquinazolin-6-yl)-4-methoxypyridazin-3-yl)-2-chlorobenzene-sulfonamide]: the EC50 was in the range of 50 to 100 nM.

Turning to `CCc1cc(-c2nnc(NS(=O)(=O)c3ccccc3Cl)cc2C)cc2cnc(N[C@H]3CC[C@H](N)CC3)nc12` [Compound 67, N-(6-(2-(((lr,4r)-4-aminocyclohexyl)amino)-8-ethylquinazolin-6-yl)-5-methylpyridazin-3-yl)-2-chlorobenzene-sulfonamide], the EC50 lay within 5 to 50 nM.

`Cc1nc(NS(=O)(=O)c2ccccc2Cl)ncc1-c1ccc2nc(N[C@H]3CC[C@H](N)CC3)ncc2c1` [Compound 68, N-(5-(2-(((1r,4r)-4-aminocyclohexyl)amino)quinazolin-6-yl)-4-methylpyrimidin-2-yl)-2-chlorobenzene-sulfonamide]: the EC50 was 50 to 100 nM.

For the compound `CCc1cc(-c2ccc(NS(=O)(=O)c3ccccc3Cl)c(F)c2)cc2cnc(N[C@H]3CC[C@H](N(C)C)CC3)nc12` [Compound 69], the EC50 was less than 5 nM.

As for `CCc1cc(-c2ccc(NS(=O)(=O)c3ccccc3Cl)c(F)c2C)cc2cnc(N[C@H]3CC[C@H](N)CC3)nc12` [Compound 71, N-(4-(2-(((1r,4r)-4-aminocyclohexyl)amino)-8-ethylquinazolin-6-yl)-2-flouro-3-methylphenyl)-2-chlorobenzene-sulfonamide], the EC50 was less than 5 nM.

`CCc1cc(-c2ccc(NS(=O)(=O)c3ccccc3Cl)c(F)c2)cc2cnc(N[C@@H]3CCC[C@H](N)C3)nc12` [Compound 72, N-(4-(2-(((1R,3S)-3-aminocyclohexyl)amino)-8-ethylquinazolin-6-yl)-2-fluorophenyl)-2-chlorobenzene-sulfonamide]: the 50% effective concentration (EC50) fell in the range of 100 to 10000 nM.

With `CCc1cc(-c2ccc(NS(=O)(=O)c3ccccc3Cl)c(F)c2)cc2cnc(N[C@@H]3CC[C@@H](N)[C@H](C)C3)nc12` [Compound 74], the EC50 was less than 5 nM.

With `N[C@H]1CCC[C@@H](Nc2ncc3cc(-c4ccc(NS(=O)(=O)c5ccccc5Cl)c(F)c4)ccc3n2)C1` [Compound 75], the EC50 fell in the range of 100 to 10000 nM.

Consider `O=S(=O)(Nc1ccc(-c2ccc3nc(N[C@H]4CCCNC4)ncc3c2)cc1F)c1ccccc1Cl` [Compound 76, (S)-2-chloro-N-(2-fluoro-4-(2-(piperidin-3-ylamino)quinazolin-6-yl)phenyl) benzene-sulfonamide], for which the EC50 was 5 to 50 nM.

Consider `N[C@@H]1CC[C@@H](Nc2ncc3cc(-c4ccc(NS(=O)(=O)c5ccccc5Cl)c(F)c4)ccc3n2)C1` [Compound 77, N-(4-(2-(((1R,3R)-3-aminocyclopentyl)amino)quinazolin-6-yl)-2-fluorophenyl)-2-chlorobenzene-sulfonamide], for which the EC50 was 5 to 50 nM.

In the case of `CCc1cc(-c2ccc(NS(=O)(=O)c3ccccc3Cl)c(F)c2)cc2cnc(N[C@@H]3CC[C@@H](N)C3)nc12` [Compound 78], the half-maximal effective concentration (EC50) is less than 5 nM.

On to `CCc1cc(-c2ccc(NS(=O)(=O)c3ccccc3Cl)c(F)c2)cc2cnc(N[C@@H]3CC[C@H](N)C3)nc12` [Compound 79, N-(4-(2-(((1R,3S)-3-aminocyclopentyl)amino)-8-ethylquinazolin-6-yl)-2-fluorophenyl)-2-chlorobenzene-sulfonamide], for which the EC50 was 5 to 50 nM.

For `NC12CCC(Nc3ncc4cc(-c5ccc(NS(=O)(=O)c6ccccc6Cl)c(F)c5)ccc4n3)(CC1)CC2` [Compound 81, N-(4-(2-((4-aminobicyclo[2.2. 2]octan-1-yl)amino)quinazolin-6-yl)-2-fluorophenyl)-2-chlorobenzene-sulfonamide], the EC50 is less than 5 nM.

`CCc1cc(-c2ccc(NS(=O)(=O)c3ccccc3Cl)c(F)c2)cc2cnc(N[C@H]3CC4C[C@H](N)CC4C3)nc12` (some centres unmarked) [Compound 82]: the EC50 lay in the range of 5 to 50 nM.
